Data on ten molecules can be found in patent EP0326329B1, “Quinazoline derivatives useful as insecticides” (Dow AgroSciences LLC, priority 1988, dated 1989).

Type in all cases: in vivo
The subject of assay [1] is Erysiphe graminis tritici (powdery mildew). The assay can be described thus: Greenhouse Test 1, foliar spray fungicide screen (POWD MDEW), host wheat. Particulars: disease control rating, 400 ppm (+++ at 100 ppm).
The subject of assay [2] is Pyricularia oryzae (rice blast). Particulars: disease control rating, foliar spray, host rice; 400 ppm (+++ at 100 ppm).
Assay [3] has as its system Puccinia recondita tritici (leaf rust). The assay can be described thus: Greenhouse Test 1, foliar spray fungicide screen (LEAF RUST), host wheat. The following applies: disease control rating, 400 ppm (+++ at 100 ppm).
Assay [4] deals with Botrytis cinerea (gray mold). The assay can be described thus: Greenhouse Test 1, foliar spray fungicide screen (GRAY MOLD), host grape berries. Particulars: disease control rating, 400 ppm (+++ at 100 ppm).
Assay [5] relates to Pseudoperonospora cubensis (downy mildew). Description: Greenhouse Test 1, foliar spray fungicide screen (DOWN MDEW), host squash. Particulars: disease control rating, 400 ppm (+++ at 100 ppm).
In assay [6] the test system is Southern corn rootworm (Diabrotica undecimpuctata howardi Barber). Description: Mite/insect screen, soil treatment (CRW). Particulars: Diabrotica, percent mortality, soil treatment, read-out: CRW RESULTS %; for mortality at 12 ppm: CRW rate 12.00 ppm; for mortality at 24 ppm: CRW rate 24.00 ppm. The essentials:
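Compounds dissolved in acetone/alcohol (50:50) with Toximul R/S emulsifiers, diluted with water. Soil (15 g, with presoaked corn seed) treated with 1 mL test solution, dried 6–12 h, then five 2–3 instar larvae added; held at 23°C. Percent mortality and phytotoxicity scored after standard exposure periods.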

For assay [7], the system named is southern armyworm (Spodopetra eridania Cramer). The assay can be described thus: Mite/insect screen, sprayed squash leaves (SAW). The following applies: Spodoptera eridania, percent mortality, read-out: SAW RESULTS %; for mortality at 200 ppm: spray rate 200 ppm; for mortality at 400 ppm: spray rate 400 ppm. In a few lines:
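Compounds dissolved in acetone/alcohol with TOXIMUL R/S emulsifiers, diluted with water to test concentrations, and sprayed to runoff on both leaf surfaces at 10 psi, then dried 1 h. Excised treated squash leaves given southern armyworm larvae; aphid and spider mite tests on sprayed squash cotyledons. Percent mortality and phytotoxicity scored after standard exposure.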

Assay [8] relates to Twospotted spider mites (Tetranychus urticae Koch). The assay can be described thus: Mite/insect screen, sprayed squash cotyledons (SM). Particulars: Tetranychus urticae, percent mortality, read-out: SM RESULTS %; for mortality at 200 ppm: spray rate 200 ppm; for mortality at 400 ppm: spray rate 400 ppm. In a few lines: (§1)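 Percent mortality and phytotoxicity are the read-outs, assessed after standard exposure periods. Test solutions, made in 50:50 acetone/alcohol with two sulfonate/nonionic emulsifier blends and diluted in water, are sprayed to runoff on both leaf surfaces, which then dry for one hour.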

The test system of assay [9] is melon aphids (Aphis gossypii Glover). The assay can be described thus: Mite/insect screen, sprayed squash cotyledons (MA). Particulars: Aphis gossypii, percent mortality, read-out: MA RESULTS %; for mortality at 200 ppm: spray rate 200 ppm; for mortality at 400 ppm: spray rate 400 ppm. The essentials: as §1

As to `CC(C)(C)c1ccc(CCCc2ncnc3ccccc23)cc1` [Example 127, 4-[3-[4-(1,1-dimethylethyl)phenyl]propyl]quinazoline], the “POWD MDEW” value in [1] was “+++ (+++ = 90-100% control at 100 ppm)”. The “RICE BLAST” value in assay [2] is recorded as “+++ (+++ = 90-100% control at 100 ppm)”. Moreover, in assay [3], the “LEAF RUST” value was “++ (++ = 90-100% control at 400 ppm)”. Moreover, the “GRAY MOLD” value in [4] is recorded as “- (- = 0-19% control at 400 ppm)”. Also, the “DOWN MDEW” value in [5] is on record as “+++ (+++ = 90-100% control at 100 ppm)”. Moreover, in assay [6], the mortality at 12 ppm is 0%. For the same molecule, in [6], the mortality at 24 ppm came to 0%. Further, the figures for the mortality at 200 ppm in assay [7], in assay [8] and in assay [9] were 0%, 100% and 100%, respectively. The mortality at 400 ppm in assay [7] amounted to 0%; in assay [8], 100%; in assay [9], 100%.

`CC(C)c1ccc(CCCOc2ncnc3ccccc23)cc1` [Example 143, 4-[3-[4-(1-methylethyl)phenyl]propoxy]quinazoline]: the “POWD MDEW” value in assay [1] is reported as “+ (+ = 20-89% control at 400 ppm)”. In assay [2], the “RICE BLAST” value is reported as “++ (++ = 90-100% control at 400 ppm)”. Moreover, the “LEAF RUST” value in [3] is listed as “- (- = 0-19% control at 400 ppm)”. In addition, the “GRAY MOLD” value in [4] was “- (- = 0-19% control at 400 ppm)”. Moreover, in assay [5], the “DOWN MDEW” value is given as “++ (++ = 90-100% control at 400 ppm)”. In addition, in [6], the mortality at 12 ppm was 0% and the mortality at 24 ppm worked out at 0%. Besides, in assay [7], the mortality at 200 ppm was determined as 80% and the mortality at 400 ppm turned out to be 0%. Moreover, in assay [8], the mortality at 200 ppm came to 0% and the mortality at 400 ppm amounted to 0%. In assay [9], the mortality at 200 ppm was found to be 0% and the mortality at 400 ppm was 0%.

With `CC(Cc1ccccc1)Oc1ncnc2ccccc12` (centres unmarked) [Example 18, 4-(1-methyl-2-phenylethoxy)quinazoline], the “POWD MDEW” value in [1] is “++ (++ = 90-100% control at 400 ppm)”. Moreover, the “RICE BLAST” value in assay [2] is recorded as “+ (+ = 20-89% control at 400 ppm)”. For the same molecule, in assay [3], the “LEAF RUST” value was “+ (+ = 20-89% control at 400 ppm)”. Moreover, the “GRAY MOLD” value in [4] was “- (- = 0-19% control at 400 ppm)”. For the same molecule, the “DOWN MDEW” value in assay [5] was “++ (++ = 90-100% control at 400 ppm)”. Further, in [6], the mortality at 24 ppm was 100%. The mortality at 400 ppm in assay [7], in assay [8] and in [9] was 0% each time.

As for `Oc1ccc(CCCOc2ncnc3ccccc23)cc1` [Example 121, 4-[3-(4-hydroxyphenyl)propoxy]quinazoline], the “POWD MDEW” value in assay [1] is on record as “- (- = 0-19% control at 400 ppm)”. For the same molecule, in assay [2], the “RICE BLAST” value is recorded as “- (- = 0-19% control at 400 ppm)”. Moreover, the “LEAF RUST” value in [3] is listed as “- (- = 0-19% control at 400 ppm)”. Moreover, in assay [4], the “GRAY MOLD” value is reported as “- (- = 0-19% control at 400 ppm)”. In addition, the “DOWN MDEW” value in assay [5] is “- (- = 0-19% control at 400 ppm)”. Moreover, the mortality at 12 ppm in assay [6] was found to be 0%. Besides, the mortality at 24 ppm in [6] stood at 0%. In addition, the mortality at 200 ppm in assay [7], in assay [8] and in [9] was 0% in each case. Moreover, the mortality at 400 ppm in assay [7], in assay [8] and in [9] was 0% each time.

For the molecule `Oc1ccccc1CCOc1ncnc2ccccc12` [Example 114, 4-[2-(2-hydroxyphenyl)ethoxy]quinazoline], in assay [1], the “POWD MDEW” value is “- (- = 0-19% control at 400 ppm)”. Further, in assay [2], the “RICE BLAST” value is recorded as “- (- = 0-19% control at 400 ppm)”. The “LEAF RUST” value in assay [3] is on record as “+ (+ = 20-89% control at 400 ppm)”. Also, the “GRAY MOLD” value in assay [4] was “- (- = 0-19% control at 400 ppm)”. In addition, the “DOWN MDEW” value in assay [5] was “+ (+ = 20-89% control at 400 ppm)”. The mortality at 12 ppm in [6] was found to be 0%. Moreover, the mortality at 24 ppm in assay [6] was 0%. The values for the mortality at 200 ppm in assay [7], in assay [8] and in assay [9] were 0%, 0% and 60%, respectively. Further, the mortality at 400 ppm in assay [7], in assay [8] and in assay [9] was 0% each time.

With `CC(COc1ncnc2ccccc12)c1cccc(Oc2ccccc2)c1` (centres unmarked) [Example 182, 4-[2-(3-phenoxyphenyl)propoxy]quinazoline], in assay [1], the “POWD MDEW” value is “++ (++ = 90-100% control at 400 ppm)”. Further, the “RICE BLAST” value in assay [2] is “- (- = 0-19% control at 400 ppm)”. Besides, the “LEAF RUST” value in [3] is on record as “++ (++ = 90-100% control at 400 ppm)”. For the same molecule, the “GRAY MOLD” value in [4] was “- (- = 0-19% control at 400 ppm)”. Moreover, the “DOWN MDEW” value in [5] was “- (- = 0-19% control at 400 ppm)”. For the same molecule, in assay [6], the mortality at 12 ppm was 0% and the mortality at 24 ppm came to 0%. Also, in [7], the mortality at 200 ppm was 0% and the mortality at 400 ppm was 0%. Besides, in assay [8], the mortality at 200 ppm turned out to be 0% and the mortality at 400 ppm came out at 80%. Moreover, in [9], the mortality at 200 ppm was 80% and the mortality at 400 ppm came to 100%.

Regarding `Cc1ccc(CCNc2ncnc3c(F)cccc23)cc1` [Example 77, 8-fluoro-N-[2-(4-methylphenyl)ethyl]-4-quinazolinamine], in assay [1], the “POWD MDEW” value was “- (- = 0-19% control at 400 ppm)”. The “RICE BLAST” value in [2] is “++ (++ = 90-100% control at 400 ppm)”. Further, the “LEAF RUST” value in assay [3] was “++ (++ = 90-100% control at 400 ppm)”. For the same molecule, the “GRAY MOLD” value in assay [4] was “- (- = 0-19% control at 400 ppm)”. Moreover, the “DOWN MDEW” value in assay [5] is on record as “- (- = 0-19% control at 400 ppm)”. Also, in assay [6], the mortality at 12 ppm came to 0% and the mortality at 24 ppm was 0%. In [7], the mortality at 200 ppm was found to be 0% and the mortality at 400 ppm was 0%. Moreover, in assay [8], the mortality at 200 ppm worked out at 0% and the mortality at 400 ppm was 0%. For the same molecule, in assay [9], the mortality at 200 ppm is 0% and the mortality at 400 ppm stood at 0%.

Take `CCCCOc1ccc(CCOc2ncnc3c(F)cccc23)cc1` [Example 156, 8-fluoro-4-[2-(4-butoxyphenyl)ethoxy]quinazoline]: the “POWD MDEW” value in assay [1] is “+++ (+++ = 90-100% control at 100 ppm)”. Further, the “RICE BLAST” value in [2] is reported as “+++ (+++ = 90-100% control at 100 ppm)”. Also, in assay [3], the “LEAF RUST” value is listed as “+++ (+++ = 90-100% control at 100 ppm)”. The “GRAY MOLD” value in assay [4] is on record as “- (- = 0-19% control at 400 ppm)”. For the same molecule, the “DOWN MDEW” value in assay [5] is given as “+++ (+++ = 90-100% control at 100 ppm)”. Besides, in assay [6], the mortality at 12 ppm was found to be 0% and the mortality at 24 ppm stood at 0%. Moreover, in assay [7], the mortality at 200 ppm was 60% and the mortality at 400 ppm came to 0%. Moreover, in [8], the mortality at 200 ppm is 100% and the mortality at 400 ppm amounted to 80%. In assay [9], the mortality at 200 ppm came to 100% and the mortality at 400 ppm was 100%.

Regarding `CCOc1ccc(CCOc2ncnc3ccccc23)cc1` [Example 15, 4-[2-(4-ethoxyphenyl)ethoxy]quinazoline], the “POWD MDEW” value in assay [1] is on record as “+++ (+++ = 90-100% control at 100 ppm)”. Moreover, the “RICE BLAST” value in [2] is listed as “+++ (+++ = 90-100% control at 100 ppm)”. Further, the “LEAF RUST” value in [3] is on record as “+++ (+++ = 90-100% control at 100 ppm)”. For the same molecule, in assay [4], the “GRAY MOLD” value was “- (- = 0-19% control at 400 ppm)”. Moreover, the “DOWN MDEW” value in assay [5] was “+++ (+++ = 90-100% control at 100 ppm)”. Also, in assay [6], the mortality at 24 ppm was 0%. Besides, the mortality at 400 ppm in assay [7], in assay [8] and in [9] was 0% in each case.

In the case of `Clc1cccc2c(NCCc3cccc(Oc4ccccc4)c3)ncnc12` [Example 166, 8-chloro-N-[2-(3-phenoxyphenyl)ethyl]-4-quinazolinamine], the “POWD MDEW” value in [1] is reported as “+ (+ = 20-89% control at 400 ppm)”. Further, in [2], the “RICE BLAST” value was “++ (++ = 90-100% control at 400 ppm)”. Moreover, the “LEAF RUST” value in assay [3] was “+++ (+++ = 90-100% control at 100 ppm)”. The “GRAY MOLD” value in assay [4] was “- (- = 0-19% control at 400 ppm)”. Moreover, the “DOWN MDEW” value in [5] is “+ (+ = 20-89% control at 400 ppm)”. Moreover, the mortality at 12 ppm in assay [6] is 0%. Further, the mortality at 24 ppm in assay [6] was determined as 0%. In addition, the mortality at 200 ppm in assay [7], in assay [8] and in assay [9] was 0% each time. In addition, the figures for the mortality at 400 ppm in [7], in [8] and in assay [9] were 0%, 0% and 60%, respectively.
